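Test compounds were applied to cells in 96-well plates for 48 hours at 5 doses. The concentration for 50% growth inhibition is given as GI50.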 Activity calls are given as the source filed them. Cut-off read from the data, not from the text of the source: active = GI50 up to about 1.1 µM and inactive = higher. *1 amine or outer side, *2 acyl side, *3 side chain or, on linkers, in order; H or OH if unused. Where a SMILES comes first, the peptide text is derived from it. Square brackets hold non-standard residues; d marks the D form. Peptide text beside a SMILES is read from it. [ ]: non-standard residue; d: D form. The star is where a group is joined. * marks the point of attachment. ξ: configuration not given here. NMeY = CN[C@@H](Cc1ccc(O)cc1)C(=O)O; Ethylenediamine = C(CN[*:2])N[*:1]; ξNMeL = CNC(CC(C)C)C(=O)O; Cbz = O=C(OCc1ccccc1)*; Lac = C[C@H](O)C(=O)O; ξA = CC(N)C(=O)O
Legend:
Assay in all cases: NCI tumour cell line growth inhibition, 48 h
RXF 393 = test system: RXF 393
NCI-H23 = test system: NCI-H23
CCRF-CEM = test system: CCRF-CEM
SF-539 = test system: SF-539
HT-29 = test system: HT-29
MCF7 = test system: MCF7
KM12 = test system: KM12
SK-OV-3 = test system: SK-OV-3
Malme-3M = test system: Malme-3M
NCI-H460 = test system: NCI-H460
CAKI-1 = test system: CAKI-1
OVCAR-5 = test system: OVCAR-5
Hs-578T = test system: Hs-578T
HOP-62 = test system: HOP-62
LOX IMVI = test system: LOX IMVI
EKVX = test system: EKVX
COLO 205 = test system: COLO 205
TK-10 = test system: TK-10
HOP-92 = test system: HOP-92
K562 = test system: K562

SMILES	GI50 (RXF 393)	GI50 (NCI-H23)	GI50 (CCRF-CEM)	GI50 (SF-539)	GI50 (HT-29)	GI50 (MCF7)	GI50 (KM12)	GI50 (SK-OV-3)	GI50 (Malme-3M)	GI50 (NCI-H460)	GI50 (CAKI-1)	GI50 (OVCAR-5)	GI50 (Hs-578T)	GI50 (HOP-62)	GI50 (LOX IMVI)	GI50 (EKVX)	GI50 (COLO 205)	GI50 (TK-10)	GI50 (HOP-92)	GI50 (K562)
COC(=O)C1=C(O)C(C(=O)OC)[C@]2(O)[C@H](C(=O)OC)[C@H]1C[C@@H](c1ccc(O)cc1)[C@H]2C(=O)OC (stereo not given in full)	15.8 µM (inactive)	28.1 µM (inactive)	54 µM (inactive)	30.3 µM (inactive)	27.5 µM (inactive)	22.6 µM (inactive)	21.8 µM (inactive)	26.5 µM (inactive)	32.7 µM (inactive)	23.7 µM (inactive)	21.2 µM (inactive)	23.8 µM (inactive)	26.1 µM (inactive)	18 µM (inactive)	29.2 µM (inactive)	32.3 µM (inactive)	31.2 µM (inactive)	25 µM (inactive)	79.8 µM (inactive)	22.8 µM (inactive)
CC1=C(N2CC2)C(=O)c2nc3n(c2C1=O)CCC3OC(=O)CCl (stereo not given)	0.0338 µM (active)	0.0358 µM (active)	0.181 µM (active)	0.056 µM (active)	0.0902 µM (active)	< 0.01 µM (active)	0.0377 µM (active)	0.0705 µM (active)	0.0453 µM (active)	0.0183 µM (active)	0.0615 µM (active)	0.0692 µM (active)	0.0279 µM (active)	0.0532 µM (active)	0.0354 µM (active)	0.217 µM (active)	0.128 µM (active)	0.13 µM (active)	3.3 µM (inactive)	0.0618 µM (active)
C[C@@H]1CC[C@]2(C)C3(C)CC[C@]2(OC3=O)[C@@]12CC(c1ccoc1)OC2=O (stereo not given in full)	24.8 µM (inactive)	29.6 µM (inactive)	22.8 µM (inactive)	30.5 µM (inactive)	54.7 µM (inactive)	61 µM (inactive)	> 100 µM (inactive)	> 100 µM (inactive)	21.1 µM (inactive)	86.5 µM (inactive)	34.3 µM (inactive)	30.8 µM (inactive)	54.2 µM (inactive)	> 100 µM (inactive)	20.3 µM (inactive)	72.3 µM (inactive)	19.3 µM (inactive)	39 µM (inactive)	32.8 µM (inactive)	34 µM (inactive)
Cc1ccc(S(=O)(=O)NC(=O)Nc2nnc(S(N)(=O)=O)s2)cc1	> 100 µM (inactive)	> 100 µM (inactive)	< 0.01 µM (active)	> 100 µM (inactive)	> 100 µM (inactive)	> 100 µM (inactive)	> 100 µM (inactive)	> 100 µM (inactive)	> 100 µM (inactive)	> 100 µM (inactive)	> 100 µM (inactive)	> 100 µM (inactive)	> 100 µM (inactive)	> 100 µM (inactive)	> 100 µM (inactive)	> 100 µM (inactive)	> 100 µM (inactive)	> 100 µM (inactive)	> 100 µM (inactive)	> 100 µM (inactive)
O=C1/C(=C/c2ccc(O)cc2)CCC1CNc1ccccc1 (stereo not given)	20.3 µM (inactive)	14.3 µM (inactive)	1.61 µM (inactive)	16.1 µM (inactive)	11.5 µM (inactive)	2.25 µM (inactive)	6.65 µM (inactive)	22.5 µM (inactive)	15.3 µM (inactive)	26.3 µM (inactive)	12.5 µM (inactive)	17.7 µM (inactive)	21.5 µM (inactive)	18.3 µM (inactive)	8.38 µM (inactive)	18.3 µM (inactive)	11.1 µM (inactive)	10.2 µM (inactive)	14.4 µM (inactive)	1.5 µM (inactive)
COC(=O)CNC(=O)/C=C/[C@H](O[Si](C)(C)C(C)(C)C)[C@H](/C=C/C(=O)NCC(=O)OC)O[Si](C)(C)C(C)(C)C	> 25 µM (inactive)	> 25 µM (inactive)	> 25 µM (inactive)	> 25 µM (inactive)	> 25 µM (inactive)	> 25 µM (inactive)	> 25 µM (inactive)	> 25 µM (inactive)	> 25 µM (inactive)	> 25 µM (inactive)	> 25 µM (inactive)	> 25 µM (inactive)	> 25 µM (inactive)	> 25 µM (inactive)	> 25 µM (inactive)	> 25 µM (inactive)	> 25 µM (inactive)	> 25 µM (inactive)	> 25 µM (inactive)	> 25 µM (inactive)
COc1ccc(C[C@@H](C(=O)N[C@@H](C)C(N)=O)N(C)C(=O)[C@@H]2CCCN2C(=O)[C@H](CC(C)C)NC(=O)C(C)NC(=O)OCc2ccccc2)cc1 (stereo not given in full) (Cbz-[ξA]LP[NMeY](Me)A-NH2)	> 100 µM (inactive)	> 100 µM (inactive)	> 100 µM (inactive)	> 100 µM (inactive)	> 100 µM (inactive)	> 100 µM (inactive)	> 100 µM (inactive)	> 100 µM (inactive)	> 100 µM (inactive)	> 100 µM (inactive)	> 100 µM (inactive)	> 100 µM (inactive)	4.94 µM (inactive)	> 100 µM (inactive)	> 100 µM (inactive)	> 100 µM (inactive)	> 100 µM (inactive)	> 100 µM (inactive)	> 100 µM (inactive)	84.3 µM (inactive)
CC(O)c1cc2c(s1)C(=O)c1sccc1C2=O (stereo not given)	0.172 µM (active)	0.0155 µM (active)	0.334 µM (active)	0.0401 µM (active)	0.238 µM (active)	0.152 µM (active)	0.234 µM (active)	1.49 µM (inactive)	0.0215 µM (active)	0.127 µM (active)	0.552 µM (active)	0.186 µM (active)	0.0638 µM (active)	0.163 µM (active)	0.0247 µM (active)	0.254 µM (active)	0.574 µM (active)	0.213 µM (active)	0.386 µM (active)	0.353 µM (active)
Cc1nc(-c2ccccc2)c(C)n2c1nc1ccccc12	25.1 µM (inactive)	15.4 µM (inactive)	30.7 µM (inactive)	35.6 µM (inactive)	20.8 µM (inactive)	24 µM (inactive)	36.8 µM (inactive)	20.1 µM (inactive)	31.4 µM (inactive)	23.8 µM (inactive)	34.7 µM (inactive)	33.2 µM (inactive)	40 µM (inactive)	32.4 µM (inactive)	30.3 µM (inactive)	37.2 µM (inactive)	31.3 µM (inactive)	29.4 µM (inactive)	19 µM (inactive)	35.3 µM (inactive)
C#CC[C@@H]1C(=O)N(Cc2ccc(OC)cc2)[C@@H](C(C)C)C(=O)N1Cc1ccc(OC)cc1	2.79 µM (inactive)	33.2 µM (inactive)	0.458 µM (active)	29.2 µM (inactive)	26.8 µM (inactive)	19.8 µM (inactive)	35.8 µM (inactive)	> 100 µM (inactive)	55.2 µM (inactive)	30.7 µM (inactive)	> 100 µM (inactive)	67.5 µM (inactive)	> 100 µM (inactive)	> 100 µM (inactive)	36.4 µM (inactive)	28.4 µM (inactive)	19.4 µM (inactive)	49.9 µM (inactive)	84.3 µM (inactive)	32.4 µM (inactive)
CSc1c(CC(=O)O)n(Cc2ccccc2)c2ccccc12	> 100 µM (inactive)	> 100 µM (inactive)	84.7 µM (inactive)	> 100 µM (inactive)	> 100 µM (inactive)	> 100 µM (inactive)	> 100 µM (inactive)	> 100 µM (inactive)	> 100 µM (inactive)	60.8 µM (inactive)	> 100 µM (inactive)	> 100 µM (inactive)	> 100 µM (inactive)	> 100 µM (inactive)	> 100 µM (inactive)	74.5 µM (inactive)	> 100 µM (inactive)	> 100 µM (inactive)	> 100 µM (inactive)	72.3 µM (inactive)
CN(C)CCCN1C(=S)N(CCCN(C)C)c2c3ccccc3nc3c([N+](=O)[O-])ccc1c23	5.08 µM (inactive)	9.08 µM (inactive)	18.8 µM (inactive)	5.04 µM (inactive)	2.94 µM (inactive)	5.47 µM (inactive)	3.3 µM (inactive)	15.5 µM (inactive)	1.75 µM (inactive)	3.46 µM (inactive)	5.96 µM (inactive)	13.8 µM (inactive)	6.27 µM (inactive)	8.95 µM (inactive)	4.42 µM (inactive)	5.5 µM (inactive)	1.71 µM (inactive)	10 µM (inactive)	5.33 µM (inactive)	4.3 µM (inactive)
COc1ccc(C[C@@H](C(=O)NCCNC(=O)C(CC(C)C)N(C)C(=O)[C@@H]2CCCN2C(=O)[C@H](C)O)N(C)C(=O)[C@@H]2CCCN2C(=O)[C@H](CC(C)C)NC(=O)C(C)NC(=O)OCc2ccccc2)cc1 (stereo not given in full) (Cbz-[ξA]LP[NMeY](Me)-{Ethylenediamine-ξNMeL-Pro-Lac})	97.7 µM (inactive)	> 100 µM (inactive)	34.6 µM (inactive)	> 100 µM (inactive)	72.3 µM (inactive)	43.9 µM (inactive)	> 100 µM (inactive)	> 100 µM (inactive)	> 100 µM (inactive)	> 100 µM (inactive)	> 100 µM (inactive)	> 100 µM (inactive)	12.9 µM (inactive)	> 100 µM (inactive)	37 µM (inactive)	> 100 µM (inactive)	77.6 µM (inactive)	> 100 µM (inactive)	68.9 µM (inactive)	40.6 µM (inactive)

Source: ChEMBL document CHEMBL1201862, “PubChem BioAssay data set” (2004)
